Data from ChEMBL document CHEMBL2016443, “From ApoA1 upregulation to BET family bromodomain inhibition: discovery of I-BET151” (Bioorg Med Chem Lett, 2012).
Activity calls are given as the source filed them. The calls are words filed in the database; no cut-off is given here.

Columns and labels:
Rattus norvegicus [1] = species on record: Rattus norvegicus; experiment: Dose normalized AUC (0 to infinity ) in CD rat; type: ADME, organism-based; details: in vivo
PBMC [2] = experiment: Inhibition of LPS-stimulated TNFalpha production in human PBMC; type: functional, cell-based
Hepatocyte [3] = experiment: Bioactivation in human hepatocytes assessed as glutathione trapping; type: cell-based
PBMC [4] = experiment: Inhibition of LPS-stimulated IL-6 production in human PBMC; type: functional, cell-based
Mus musculus [5] = experiment: Antiinflammatory activity in LPS-stimulated acute inflammation BALB/c mouse model assessed as inhibition of plasma MCP-1 level at 10 mg/kg, po administered 2 hrs before LPS challenge; type: functional
Hepatocyte [6] = experiment: Bioactivation in human hepatocytes assessed as compound epoxidation; type: cell-based
HepG2 = experiment: Upregulation of ApoA1 expression in human HepG2 cells assessed as concentration required to increase 70% of luciferase activity after 18 hrs by luciferase reporter gene assay; type: functional
Cytochrome P450 2C9 = Cytochrome P450 2C9 (Homo sapiens, UniProt P11712); experiment: Inhibition of CYP2C9; type: ADME
Sequence of Cytochrome P450 2C9 (P11712 whole entry): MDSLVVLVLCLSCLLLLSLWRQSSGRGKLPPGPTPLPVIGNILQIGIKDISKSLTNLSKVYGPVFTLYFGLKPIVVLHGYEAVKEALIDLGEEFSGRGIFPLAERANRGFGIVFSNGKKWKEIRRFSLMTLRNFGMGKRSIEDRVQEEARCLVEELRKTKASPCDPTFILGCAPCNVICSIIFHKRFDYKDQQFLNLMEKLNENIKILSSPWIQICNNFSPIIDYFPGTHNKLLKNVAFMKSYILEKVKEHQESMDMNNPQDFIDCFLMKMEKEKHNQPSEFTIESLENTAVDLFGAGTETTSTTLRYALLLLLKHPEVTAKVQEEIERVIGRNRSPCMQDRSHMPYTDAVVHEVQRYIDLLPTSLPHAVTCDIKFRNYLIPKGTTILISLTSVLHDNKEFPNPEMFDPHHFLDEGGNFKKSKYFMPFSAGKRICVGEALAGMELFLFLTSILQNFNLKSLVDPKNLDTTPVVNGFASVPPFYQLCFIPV

[7] = Volume of distribution at steady state in CD rat; type: ADME, organism-based; details: in vivo, read-out: Vdss
Hepatocyte [8] = experiment: Bioactivation in rat hepatocytes assessed as compound epoxidation; type: cell-based
THP-1 = experiment: Antiinflammatory activity in human THP1 cells; type: functional, cell-based
Rattus norvegicus [9] = species on record: Rattus norvegicus; experiment: Half life in CD rat; type: ADME, organism-based; details: in vivo
Mus musculus [10] = experiment: Antiinflammatory activity in LPS-stimulated acute inflammation BALB/c mouse model assessed as inhibition of plasma TNF-alpha level at 10 mg/kg, po administered 2 hrs before LPS challenge; type: functional
[11] = Oral bioavailability in CD rat; type: ADME, organism-based; details: in vivo
Mus musculus [12] = experiment: Antiinflammatory activity in LPS-stimulated acute inflammation BALB/c mouse model assessed as inhibition of plasma PAI-1 level at 10 mg/kg, po administered 2 hrs before LPS challenge; type: functional
Mus musculus [13] = experiment: Antiinflammatory activity in LPS-stimulated acute inflammation BALB/c mouse model assessed as inhibition of plasma IL-6 level at 10 mg/kg, po administered 2 hrs before LPS challenge; type: functional
Hepatocyte [14] = experiment: Bioactivation in rat hepatocytes assessed as glutathione trapping; type: cell-based
Salmonella typhimurium = experiment: Mutagenic activity in Salmonella typhimurium by Ames assay; type: toxicity, organism-based; details: salmonella enterica subsp. enterica serovar typhimurium

AUC/dose (Rattus norvegicus [1]): 38 kg·min/L | Drug metabolism (Hepatocyte [3]): Not Active | Drug metabolism (Hepatocyte [6]): Not Active | IC50 (Cytochrome P450 2C9): 9.9 µM | Vd [7]: 2.1 L/kg | Drug metabolism (Hepatocyte [8]): Not Active | t1/2 (Rattus norvegicus [9]): 1.7 h | bioavailability [11]: 66% | Drug metabolism (Hepatocyte [14]): Not Active
Compound: COc1cc2c(cc1-c1c(C)noc1C)ncc1[nH]c(=O)n([C@H](C)c3ccccn3)c12
inhibition (PBMC [2]): Dose-dependent effect | inhibition (PBMC [4]): Dose-dependent effect | inhibition in vivo at 10 mg/kg (Mus musculus [5]): 47% | EC170 (HepG2): 0.09 µM | Activity (THP-1): Active | inhibition in vivo at 10 mg/kg (Mus musculus [10]): 65% | inhibition in vivo at 10 mg/kg (Mus musculus [12]): 35% | inhibition in vivo at 10 mg/kg (Mus musculus [13]): 75% | Activity (Salmonella typhimurium): Non-toxic
